One assay has as its system DNA-PK and ATM kinases. Put plainly: Immunoblot of radiation-induced phosphorylation in MCF7 cells. Format: cell-based, human. As to conditions: 20, 100, 500, 1000 nM, 30 min pre-treatment, 10 Gy IR. An excerpt:
Antibodies recognizing phosphorylated/activated ATM (S1981, #ab81292) and DNA-PKcs (S2056, #ab18192) were purchased from Abcam Biotechnology (Cambridge, MA). Antibodies to ATM (#A1106) and DNA-PKcs (#ab1832) were from Sigma and Abcam, respectively. Phospho-KAP1 (S824, #A300-767A) and KAP1 (A700-014) antibodies were from Bethyl Labs (Montgomery, TX). Phospho-TBK1 (#5483), cGAS (#15102), and pSTING (S366, #19781S) antibodies were from Cell Signaling Technology (CST) (Danvers, MA). STING (PA5-23381) antibodies were from ThermoFisher Scientific (Waltham, MA), and actin (#A5316) antibodies were from Sigma. […]
Cells were pretreated with Compound 569 at 20, 100, 500, or 1000 nM or DMSO for 30 min and then irradiated with 0 or 10 Gy (XRAD 160, Precision X Ray) as shown in FIG. 1. […] One hour after IR, cells were lysed in RIPA buffer ([…], pH 8.0, 150 mM NaCl, 0.1% SDS, 0.5% sodium deoxycholate, 1% IGEPAL® CA-630 (Sigma, 18896) for 20 min at 4° C. in the presence of protease and phosphatase inhibitor cocktails (Roche, #04693159001 & #04906837001). Cell lysates were centrifuged at 13,200 g for 10 min at 4° C. and supernatants were analyzed for protein content using BCA assay (Pierce™ BCA Protein Assay Kit, cat #23227, ThermoFisher Waltham, MA 02451) and equal amounts of protein/lane were used for subsequent immunoblot analyses. Proteins were denatured by adding NuPAGE LSD Sample Buffer [4×] […]
In general terms: In western blotting, separated proteins are transferred to a membrane and probed.

Another assay concerns the target DNA-PK (Homo sapiens (Human), UniProt P78527). Put plainly: Pharmacodynamic assay, pDNA-PK/DNA-PK in FADU tumors. Format: in vivo. As to conditions: for pDNA-PK/DNA-PK: FADU tumors. On the procedure:
FADU or MDA-MB-231 cells were harvested during log phase growth for in vivo implantation. The resuspended cells were washed three times in phosphate buffered saline (PBS) before preparing the working dilution in PBS. FADU cells were diluted to 1×10^7 cells/mL and MDA-MB-231 cells were diluted to 5×10^7 cells/mL. Each mouse was injected subcutaneously in the right flank with 100 μL of the cellular suspension. Tumor growth was monitored until the tumors reached a target volume of at least 100 mm^3, at which point mice were randomly stratified into four treatment groups.
Tumor studies were performed as follows. Mice bearing FADU or MDA-231 tumors were pre-dosed with vehicle alone or compound 569 alone at 3, 6, and 10 mg/kg. Tumors were then irradiated with 10 Gy 45 min after vehicle or compound 569 administration or left unirradiated (vehicle and compound 569 at 10 mg/kg). Tumors were harvested 1 h post radiation.
Tissue homogenates for pharmacodynamic analyses were collected and processed as follows. Tumor tissues from FADU or MDA-MB-231 tumors were flash frozen in liquid nitrogen and pulverized on dry ice using a tissue pulverizer. A portion of the tumor powder was transferred into a microtube, followed by addition of 500 μL of RIPA buffer [[…], pH 8.0, 150 mM NaCl, 0.1% SDS, 0.5% sodium deoxycholate, 1% IGEPAL® CA-630 (Sigma, I8896)]. To 10 ml of RIPA buffer, 2 tablets each of Protease inhibitor and Phosphatase inhibitor (Roche, #04693159001 & #04906837001), 200 μL of 0.1 M PMSF and 160 μL of Aprotinin, (Sigma, A6279) were added. The suspension was homogenized on ice with a pellet pestle motor (KONTES) and incubated on ice for 30 minutes. Cell lysates were centrifuged at 13,200 rpm for 15 min at 4° C. and supernatants were transferred to a new tube and analyzed for protein concentration with a BCA kit (Pierce, 23227), followed by immunoblotting.

The structures appear in SMILES notation.

The term inhibition denotes the drop in the measured response relative to a control, in per cent. Take `CC(C)NCCOc1ncc(-c2cc3c4c(cnc3cc2F)N(C)C(=O)C42CCC2)cc1NS(C)(=O)=O` [Compound 569, N-(5-(7′-Fluoro-3′-methyl-2′-oxo-2′,3′-dihydrospiro[cyclobutane-1,1′-pyrrolo[2,3-c]quinolin]-8′-yl)-2-(2-(isopropylamino)ethoxy)pyridin-3-yl)methanesulfonamide]: the “inhibition of radiation-induced phosphorylation of DNA-PKcs (Ser2056), ATM (Ser1981) and KAP1 (ser824)” value with DNA-PK and ATM kinases is “potent dose-dependent inhibition”. Further, at DNA-PK (10 mg/kg, 10 Gy, FADU and MDA231 tumors (FIGS. 4 and 5), read-out: inhibition of tumor levels of radiation-induced autophosphorylation of DNA-PK), the inhibition at 10 mg/kg is around 55%. In addition, the pDNA-PK/DNA-PK on DNA-PK (10 Gy, 3 mg/kg oral) is given as 0.938; on DNA-PK (10 Gy, 6 mg/kg oral) it was 0.658; at DNA-PK (10 Gy, 10 mg/kg oral), 0.476; on DNA-PK (no radiation, 10 mg/kg oral), 0.343. In addition, the “basal phosphorylation of DNA-PK in tumors” value at DNA-PK (no radiation, 10 mg/kg) was “inhibited”.
